Literature values, collected in patent US11077316B2, “Insertion devices and systems for production of emitted light internal to a medium and methods for their use” (Immunolight, LLC, priority 2016, dated 2021).
Read-outs that look alike come from different tables or passages of the source.

Assays:
[1] = system: Zaire Ebola virus (ZEBOV); settings: UV light 310 to 360 nm, ex situ in extracted blood
[2] = system: Venezuelan equine encephalitis virus (VEEV); settings: INA exposed to full light conditions
[3] = orange juice, high UV exposure of 100 mJ/cm^2
Acinetobacter baumannii = settings: released nitric oxide, light 100 milliWatts per square centimeter

With `Oc1cccc(-c2c3nc(c(-c4cccc(O)c4)c4ccc([nH]4)c(-c4cccc(O)c4)c4nc(c(-c5cccc(O)c5)c5ccc2[nH]5)CC4)C=C3)c1` [Foscan, Tetra (m-hydroxyphenyl) chlorin] as the compound, how does the “duration of skin photosensitivity” value (clinical) read?
Its value is “approximately 2 weeks”.

For `[N-]=[N+]=Nc1cccc2c(I)cccc12` [INA, 1,5-iodonaphthyl-azide], which “infectivity of ZEBOV after INA treatment” value [1] is on record?
Its value is “completely noninfectious”.

And the “inactivation of virulent strain of VEEV” value [2]?
The value was “efficiently inactivate”.

For `CC(=O)[O-].CC(=O)[O-].CCc1c(CC)c2cc3nc(cnc4cc(OCCOCCOCCOC)c(OCCOCCOCCOC)cc4ncc4nc(cc1[n-]2)C(CCCO)=C4C)C(C)=C3CCCO.O.[Lu+3]` [Motexafin lutetium], which “duration of skin photosensitivity” value (in vivo) is on record?
The value was 24 to 48 h.

Which “degradation of Vitamin C” value [3] does the source give for `O=C1O[C@H]([C@@H](O)CO)C(O)=C1O` [Vitamin C] here?
Its value is 17%.

With [Mn(PaPy3)(NO)](ClO4) as the compound, how does the “clearing of bacteria from treated areas of plates” value (Acinetobacter baumannii) read?
Its value is “effectively cleared the bacteria”.
